# Data from article PMC6504997 (ACS chemical biology, 2018).
# Target: EXOSC3 (GST-EXOSC3, EXOSC3-WT) (Homo sapiens, UniProt Q9NQT5)
# Experiment: MST, inhibition of RNA binding
# Settings: 3.12 μM long G-rich RNA (GGGAGGGAGGGAGAGGGA)
# EXOSC3 (GST-EXOSC3, EXOSC3-WT), sequence (Q9NQT5 whole entry): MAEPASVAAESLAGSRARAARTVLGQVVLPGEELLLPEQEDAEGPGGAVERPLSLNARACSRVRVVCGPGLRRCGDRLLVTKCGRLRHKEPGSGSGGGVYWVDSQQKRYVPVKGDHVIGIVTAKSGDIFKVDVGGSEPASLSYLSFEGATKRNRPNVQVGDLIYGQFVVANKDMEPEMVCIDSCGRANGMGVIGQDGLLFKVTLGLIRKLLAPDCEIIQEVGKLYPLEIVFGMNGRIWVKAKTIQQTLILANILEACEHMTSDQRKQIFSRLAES
structure (smiles),measurement,value
"CC(C)(O)CCc1cccc(C(=O)N2Cc3ccccc3C(O)C2)c1 (stereo not shown) [ERD03, EXOSC3-RNA disrupting (ERD) compound 3]",% inhibition at 50 μM,54 ± 10%
